Experimental data taken from US20220175798A1, “COMPOSITIONS COMPRISING OXYGENATED CHOLESTEROL SULFATE AND AT LEAST ONE OF POLYALKYLENE GLYCOL, CARBOXYMETHYL CELLULOSE AND POLYOXYLGLYCERIDE” (Durect Corporation, priority 2016, published 2022).

Tests used:
[1] = tested on: renal ischemia/reperfusion injury; assay: Renal ischemia/reperfusion injury in rats; type: in vivo, Lewis rats; conditions: 50 mg/kg daily for 4 days oral gavage; Day 3; vs vehicle; not statistically significant
Method: The subjects for the study were 18 adult male Lewis rats (9-11 weeks of age; 225-250 g). […] All animals were in healthy condition and admitted to the study.
(§1) The Vehicle was a solution of 0.5% (w/v) CMC and 0.05% (v/v) Tween-80 in water. Powdered 25HC3 S was constituted into the vehicle solution to result in a drug concentration of 20 mg/mL. The suspensions were homogenized at 20,000 rotations per minute (rpm) for approximately 5 minutes after being combined, with 10 second breaks every 30-40 seconds and swirled before dosing to maintain homogeneity. The formulated test article was prepared weekly and kept at room temperature.
All rats were anesthetized with intraperitoneal injection of pentobarbital (40 mg/kg). Ischemia of the left kidney was achieved by transient occlusion of the left renal artery and vein, and ureter for 50 min with a vascular micro-clip. The skin was temporarily closed during the ischemia period and the rats were put on a heating pad maintained at a temperature of 37° C. At reperfusion, the right kidney was removed before permanently closing the abdomen with 4-0 silk suture Animals were treated with vehicle (N=6) or 25HC3S (N=12) daily for 4 days, starting on the day before the surgery, (pre-treatment, Day −1) and for 2 days after the surgery. […] Serum creatinine (sCr) levels and BUN levels were examined on Day −2 (baseline), Day 3, and/or Day 7 after the surgery.

[2] = Oral pharmacokinetics in HFD-fed Golden Syrian hamsters; type: in vivo
Excerpt: The subjects for the study were 40 Golden Syrian male hamsters. Two cohorts were provided with either regular diet (RD) or high fat diet (HFD) for 10 weeks. 25HC3 S treatment was initiated at the start of Week 11. Group 1 remained on a regular diet while HFD-fed hamsters were randomly divided into three treatment groups (Groups 2-4; Table 20).
as §1, with “in” for “in a”, “concentrations” for “concentration”, “2.5 and 10” for “20”, “homogenized” for “homogenized at 20,000 rotations per minute (rpm)”, “minutes” for “minutes after”
Hamsters were treated with 25HC3 S by daily oral gavage for 6 weeks while maintained on RD or HFD. Each hamster received daily doses of 25HC3S or vehicle by oral gavage (N=10/group). There were two dose groups (Groups 3 and 4): 10 and 50 mg/kg, as specified in Table 20, with dose volumes of 4 and 5 mL/kg, respectively.
For pharmacokinetic (PK) analysis, blood was collected following the first 25HC3S dose. Whole blood samples were collected via the jugular vein at pre-dose, 0.5, 2, 4, 8, 12 hours (h) post dose from each hamster; however, the last blood collection may have been collected by terminal cardiac puncture with the animals deeply anesthetized by isoflurane. Blood samples were placed into tubes containing K2EDTA. The blood was gently mixed to assure distribution of the anti-coagulant and the resulting plasma samples underwent analyses to quantify 25HC3S levels.

[3] = Stability and impurity profile of 25HC3S suspension at room temperature by HPLC; type: physicochemical
Method: The HPLC technique involved reverse phase HPLC for measuring the concentration of 25HC3 S in the solubility samples.
Weigh 80 mg of 25HC3S (Lot #B, Passed through 20 mesh screen and Jet-milled, 3rd pass) into a 10 mL vial. Add to the vial, 8 mL of Vehicle PEG 3350 (with 0.15% L-Methionine and 0.9% NaCl). […] A total of 9 samples were dispensed using 1 mL BD syringes attached to 20G1″ or 25G⅝″ Terumo UTW needles for homogeneity analysis by HPLC (Study #14) and stability study (Study #17).

[4] = tested on: non-alcoholic steatohepatitis (NASH); assay: Accelerated mouse model of NASH (STZ + HFD), Part II; type: in vivo, C57BL/6J mice; conditions: 50 mg/kg daily oral
Method: The subjects for the study were 36 C57BL/6J male mice. Mice were given 200 μg streptozotocin (STZ) at 2 days after birth and fed high fat diet (HFD) starting at four weeks of age until the remainder of the study (13 weeks of age). This intervention early in their lives induces accelerated progression of non-alcoholic steatohepatitis (NASH) and has been thoroughly characterized.
as §1, with “Vehicle” for “vehicle”, “in” for “in a”, “10” for “20”, “homogenized” for “homogenized at 20,000 rotations per minute (rpm)”, “(with” for “after being combined, with”, “seconds)” for “seconds”
Mice were divided into treatment groups (N=10/group) and dosed daily by oral gavage with water (control), Vehicle or 50 mg/kg 25HC3 S starting from Week 9 to Week 13 (28 days treatment).

[5] = Week 9 to 13, vs Vehicle, p<0.05

C[C@H](CCCC(C)(C)O)[C@H]1CC[C@H]2[C@@H]3CC=C4C[C@@H](OS(=O)(=O)[O-])CC[C@]4(C)[C@H]3CC[C@]12C.[Na+] [Formulation 25HC3S, 5-cholesten-3, 25-diol, 3-sulfate]
reduction of BUN levels [1]: 5% | reduction of sCr levels [1]: ~20% | dose-normalized AUC ([2]; 10 mg/kg oral): 195 ng·h/mL/mg | normalized Cmax ([2]; 10 mg/kg oral): 32.2 ng/mL/mg | normalized Cmax ([2]; 50 mg/kg oral): only half of the 10 mg/kg dose | mean half-life ([2]; first oral dose): 3 h | time of mean maximum plasma concentration ([2]; first oral dose, both doses (10 and 50 mg/kg)): 0.5 h | odor after storage ([3]; 25HC3S in Vehicle PEG 3350 with L-Methionine, room temperature for a few months): produced a sulfur-like odor | % peak area for 25HC3S ([3]; after 2 weeks at RT, 25 mg/mL in Vehicle PEG 3350 (with 0.15% L-Methionine), 25HC3S plus two impurities as 100%, n=2): approximately 99.17% | drug potency ([3]; after 2 weeks at RT, time 0 concentration as 100%, n=2, 25 mg/mL in Vehicle PEG 3350 (with 0.15% L-Methionine)): 103.7% | 25HC3S by peak area normalization ([3]; final suspension formulation 25 mg/mL, room temperature up to 14 days): 99.172% | stable at ambient room temperature ([3]; suspension 25 mg/mL in Vehicle PEG 3350 (with 0.15% L-Methionine)): at least 2 weeks | NAS (NAFLD activity score) ([4]; Week 9 to 13, vs Vehicle): trend of reduction | hepatocyte ballooning [4, 5]: significant reduction | percent area of fibrosis (Sirius red-positive area) [4, 5]: significantly decreased | extent of fibrosis ([4]; compared to baseline Week 9 mice): trended lower
